Measurements: PMC7395048 (Archives of Toxicology, 2020)
Entries after “also recorded” stand apart in the source; their conditions may differ. Marks after values point to notes of the source that are not given here.

Key:
hiPSC-CM = hiPSC-CM MEA assay (FPDc, extracellular field potential); conditions: for cytotoxicity at the test concentrations: up to 30 µM, data not shown
Experimental: Briefly, each well of the MEA chips was precoated with 50 μg/ml fibronectin for 3 h in the incubator at 37 °C with 5% CO2. The fibronectin coating solution was aspirated before seeding. Cells were thawed in the incubator at 37 °C for exactly 4 min and carefully transferred to a 50-ml tube. The original vial was rinsed with serum free Pluricyte® Cardiomyocyte Medium and added drop-wise to the tube containing the cardiomyocytes. […] Then, the supernatant was removed and medium was drop-wisely added to reach the aimed concentration of cells in the suspension (10^4 cells/μl). 2-μl cell suspension per well was placed on the six-well MEA chips in a density of 10^4 cells/μl. After 3-h incubation (37 °C, 5% CO2), 200 μl of medium was filled into each well of the MEA chips which were subsequently incubated at 37 °C with 5% CO2 and refreshed with medium every 2 days.
At 7–8 days after seeding, MEA chips were placed on the headstage of a MEA2100-system (MCS GmbH) integrated with the chamber providing a stable atmosphere (37 °C, 5% CO2) to record the extracellular field potential (Fig. 2) of spontaneous beating hiPSC-CM. After an equilibration time of 20 min, half of the medium (100 μl) in each well was replaced by culture medium containing 0.2% (v/v) DMSO to reach a final concentration of 0.1% (v/v) DMSO, which was used as baseline condition. […] At each concentration, the extracellular field potential was recorded for 1 min after 10-min exposure. […] Same test concentrations were chosen for EDDP and EMDP, which enables definition of concentration-dependent curves for EDDP and EMDP that allow potency comparison.
One well of 0.1% (v/v) DMSO on each MEA chip was used as the vehicle control well and run at the same time as the compound exposure wells to correct for time- and DMSO-dependent effects on the field potential. A detailed exposure scheme can be found in Fig. S1. Data were collected using Cardio 2D software (MCS GmbH) with a sample frequency of 10 kHz and a 0.1–3.5-kHz band-pass filter.
Field potential duration (FPD) was defined as duration between the beginning of the sodium spike and the repolarizing peak (Fig. 2). RR-intervals were defined as the duration between two depolarization peaks (Fig. 2). The FPD and RR-interval were measured as the average of at least 30 beats from 1-min recording at each concentration of the test compound.
In this formula, the FPD and RR-interval are expressed in seconds. Data were collected from at least three independent experiments (4–8 wells, 26–38 electrodes), using a new vial of cells (all from the same batch) at each independent experiment. […] The concentrations inducing irregularities in the field potential trace (Fig. S2) were also noted.
The concentration–response curves were plotted with GraphPad Prism 5.0 using the four-parameters logistic fit (GraphPad Software Inc., San Diego, USA). Each data point is presented as the mean value of at least three independent experiments ± standard deviation (SD). Statistical significance of the changes in response of cells exposed to the compound compared to the solvent control was analyzed by one-way ANOVA followed by post Dunnett test. Values of p < 0.05 were regarded as statistically significant (p < 0.05: *, p < 0.01: ** and p < 0.001: ***). Statistical analysis was performed by GraphPad Prism 5.0 (GraphPad Software Inc.).

[1] = In vitro incubations with pooled human liver microsomes; conditions: EDDP as substrate, 1000 µM
Experimental: The test concentrations were chosen to enable adequate analysis of Michaelis–Menten kinetics. After one-min pre-incubation of this solution at 37 °C, the reactions were initiated by addition of human liver microsomes giving a final concentration of 0.5 mg/ml microsomal protein and incubations were performed in a shaking water bath at 37 °C for 40 min. Control incubations were performed in the absence of NADPH which was replaced with Tris–HCl. The reactions were terminated by addition of 40-µl ice-cold acetonitrile. Samples were kept on ice for at least 20 min and then centrifuged at 18,000g for 5 min at 4 °C to precipitate microsomal proteins.
Vmax and Km were obtained by fitting the data to Eq. (2) in GraphPad Prism 5.0 (GraphPad Software Inc.). Data were collected from three independent experiments and each data point is presented as the mean value ± SD.

[2] = parameters: method as in Hsu et al. ([2013]); conditions: subjects on methadone maintenance treatment; ref Hsu et al. ([2013]); cited from earlier work
hERG channels = conditions: ref Eap et al. [2007], cited from earlier work
[3] = ref Foster [2001]; cited from earlier work
[4] = cited from earlier work
[5] = RED assay, unbound fraction in pooled human plasma
Experimental: (§1) Then, 25 µl of post-dialysis samples were collected from the sample chambers and transferred to test sample tubes followed by an addition of 25 µl PBS. Equal volumes of post-dialysis samples collected from the buffer chamber which were then mixed with 25 µl of in vitro medium or human plasma in the buffer sample tubes. Then, both samples were precipitated using 300-µl cold acetonitrile/water (90/10 v/v). The samples were put on ice for 30 min followed by centrifugation for 30 min at 15,000g. Then, supernatants were collected for UPLC–PDA analysis.
(§2) The measurements were performed in triplicate in two independent experiments.

[6] = RED assay, unbound fraction in in vitro hiPSC-CM MEA assay medium; conditions: in vitro hiPSC-CM MEA assay medium (serum-free)
Experimental: as §1, §2

With `CC=C1N(C)C(C)CC1(c1ccccc1)c1ccccc1` (stereo not drawn) [EDDP, 2-ethylidene-1,5-dimethyl-3,3-diphenylpyrrolidine] the “BMC20, prolongation of FPDc” value (hiPSC-CM; 20% change in FPDc over control, cumulative addition, 10-min exposure) was 2.3 µM, the “unbound BMC20” value (hiPSC-CM; BMC20 corrected for unbound fraction in medium) was 2.07 µM and the “concentration at which cessation of beating was observed” value (hiPSC-CM; human, 10 min) was 30 µM. The “concentration from which arrhythmia-like waveforms were induced” value (hiPSC-CM; tested up to 30 µM) was ≥ 3 µM, the “cytotoxicity at the test concentrations” value (hiPSC-CM) was “no cytotoxicity was observed” and the “EMDP formation from EDDP” value [1] was “formation of EMDP was neither detectable”. For the same compound, the “BPr (blood/plasma ratio)” value [2] was 0.87^c, the hERG channel block (hERG channels; Katchman et al. [2002]) was “weaker hERG channel blocker compared to methadone” and the “recovery of EDDP in feces” value [3] was “up to 39%”. The “free blood Cmax of EDDP” value ([4]; oral methadone 57.5 mg/day, estimated from reported EDDP data, ref De Vos et al. ([1995])) was 0.05 µM, the fraction unbound at 5 h, 150 µM [5] was 0.3 ± 0.015 and the fraction unbound at 5 h, 150 µM [6] was 0.9 ± 0.072.
With `CCC1=NC(C)CC1(c1ccccc1)c1ccccc1` (stereo not drawn) [EMDP, 2-ethyl-5-methyl-3,3-diphenylpyrroline] the “concentration shortening the FPDc by 20% (BMC20 for decreasing FPDc)” value (hiPSC-CM; cumulative addition, 10-min exposure) was 3.8 µM, the “concentration causing beating arrest in certain wells” value (hiPSC-CM; in certain wells) was 30 µM and the “arrhythmia-type waveforms / FPDc prolongation” value (hiPSC-CM; test range 0.1-30 µM) was “without inducing arrhythmia-type waveforms; also recorded: Neither FPDc prolongation nor arrhythmia-type waveforms were observed”. The “cytotoxicity at the test concentrations” value (hiPSC-CM) was “no cytotoxicity was observed”, the hERG channel inhibition (hERG channels) was “not inhibit hERG channels” and the “in vivo total plasma concentration of EMDP” value ([4]; after clinical relevant dosing of methadone, ref Alburges et al. [1996]) was “less than 0.04 µM”.
